Measured values: patent US12642270B2, “Substituted thiophene carboxamides, thiophene carboxylic acids and derivatives thereof” (Bayer Aktiengesellschaft, priority 2019, dated 2026)

Experiment: Log P by HPLC on reversed phase columns (EEC directive 79/831 Annex V.A8)
Format: physicochemical
Settings: method [a]
Description: In the above tables, measurement of Log P values was performed according to EEC directive 79/831 Annex V.A8 by HPLC (High Performance Liquid Chromatography) on reversed phase columns with the following methods: • ^[a] Log P value is determined by measurement of LC-UV, in an acidic range, with 0.1% formic acid in water and acetonitrile as eluent (linear gradient from 10% acetonitrile to 95% acetonitrile). • ^[b] Log P value is determined by measurement of LC-UV, in a neutral range, with 0.001 molar ammonium acetate solution in water and acetonitrile as eluent (linear gradient from 10% acetonitrile to 95% acetonitrile). • ^[c] Log P value is determined by measurement of LC-UV, in an acidic range, with 0.1% phosphoric acid and acetonitrile as eluent (linear gradient from 10% acetonitrile to 95% acetonitrile). If more than one Log P value is available within the same method, all the values are given and separated by “+”. Calibration was done with straight-chain alkan2-ones (with 3 to 16 carbon atoms) with known Log P values (measurement of Log P values using retention times with linear interpolation between successive alkanones). Lambda-max-values were determined using UV-spectra from 200 nm to 400 nm and the peak values of the chromatographic signals.

| LogP | Compound |
| --- | --- |
| 4.89^[a] | CC(C)(C)OC(=O)C(NC(=O)c1sc(Br)c(Br)c1F)C1CC1 (racemic) [1.0921] |
| 4.59^[a] | O=C(NC(C(=O)OC1CCC1)C1CC1)c1sc(Br)c(Br)c1F (racemic) [1.0922] |
| 4.40^[a] | CC(C)OC(=O)C(NC(=O)c1sc(Br)c(Br)c1F)C1CC1 (racemic) [1.0923] |

Same assay, conditions: method [a]; compounds of formula (I), Table 1.1

| LogP | Compound |
| --- | --- |
| 3.48^[a] | CCOC(=O)C(NC(=O)c1cc(C)c(Cl)s1)C(C)C (racemic) [1.0002] |
| 3.46^[a] | CCOC(=O)C(NC(=O)c1cc(F)c(Br)s1)C(C)C (racemic) [1.0003] |
| 2.68^[a] | COC(=O)C(CC(F)F)NC(=O)c1cc(F)c(Br)s1 (racemic) [1.0004] |
| 2.76^[a] | COC(=O)C1(NC(=O)c2sc(Br)c(Br)c2F)CCOC1 (racemic) [1.0009] |
| 4.74^[a] | CCSC(=O)C(NC(=O)c1sc(Cl)c(Br)c1C)C(C)C (racemic) [1.0021] |
| 3.13^[a] | CCOC(=O)C1(NC(=O)c2sc(Br)c(Br)c2F)CCOCC1 [1.0011] |
| 4.15^[a] | O=C(CNC(=O)c1sc(Br)c(Br)c1F)SCc1ccccc1 [1.0015] |
| 2.52^[a] | CCOC(=O)CCNC(=O)c1sc(C#N)c(Br)c1C [1.0025] |
| 2.58^[a] | CCOC(=O)C1(NC(=O)c2sc(C#N)c(Br)c2C)CC1 [1.0026] |
| 3.29^[a] | COC(=O)C1(NC(=O)c2sc(Cl)c(Br)c2C)CSC1 [1.0035] |
| 2.25^[a] | CCOC(=O)C(CC(N)=O)NC(=O)c1sc(Cl)c(Br)c1C (stereo not shown) [1.0036] |
| 3.75^[a] | CCOC(=O)C1(CNC(=O)c2sc(Br)c(Cl)c2C)CC1 [1.0040] |
| 3.94^[a] | CCOC(=O)C(CC(F)(F)F)NC(=O)c1sc(Br)c(Cl)c1C (stereo not shown) [1.0045] |
| 2.77^[a] | CCOC(=O)C1(NC(=O)c2sc(Br)c(Br)c2F)COC1 [1.0046] |
| 3.19^[a] | COC(=O)C1(NC(=O)c2sc(Br)c(Br)c2F)CSC1 [1.0047] |
| 2.17^[a] | CCOC(=O)C(CC(N)=O)NC(=O)c1sc(Br)c(Br)c1F (stereo not shown) [1.0048] |
| 3.88^[a] | CCOC(=O)C(CC(F)(F)F)NC(=O)c1sc(Br)c(Br)c1F (stereo not shown) [1.0050] |
| 2.16^[a] | CCOC(=O)CNC(=O)c1cc(Br)c(C#N)s1 [1.0052] |
| 3.50^[a] | CCOC(=O)C(Cc1ccccc1)NC(=O)c1cc(Br)c(C#N)s1 (stereo not shown) [1.0055] |
| 4.61^[a] | CCOC(=O)CNC(=S)c1sc(Cl)c(Cl)c1Br [1.0059] |
| 4.67^[a] | CCOC(=O)C(CC(C)C)NC(=O)c1sc(Br)c(Br)c1F (stereo not shown) [1.0062] |
| 2.98^[a] | CCOC(=O)CNC(=O)c1sc(Cl)c(Br)c1C [1.0063] |
| 4.30^[a] | CCOC(=O)C(NC(=O)c1sc(Cl)c(Br)c1C)C(C)C (stereo not shown) [1.0067] |
| 3.99^[a] | CCOC(=O)C(CCSC)NC(=O)c1sc(Cl)c(Br)c1C (stereo not shown) [1.0070] |
| 3.67^[a] | CCOC(=O)C1(NC(=O)c2sc(Br)c(Cl)c2C)CCC1 [1.0075] |
| 3.60^[a] | COC(=O)C(CC(F)F)NC(=O)c1sc(Br)c(Br)c1I (stereo not shown) [1.0083] |
| 4.23^[a] | CCOC(=O)C1(NC(=O)c2sc(Cl)c(Cl)c2Br)CCC1 [1.0085] |
| 3.60^[a] | COC(=O)C(CC(F)F)NC(=O)c1sc(Cl)c(Cl)c1Br (stereo not shown) [1.0086] |

More lines, now with the values behind:

| Compound | LogP |
| --- | --- |
| C=CC1CC1(NC(=O)c1sc(Br)c(Br)c1F)C(=O)OC (mixture of isomers) [1.0008] | 3.37^[a] |
| CSCCC(NC(=O)c1cc(Br)c(Cl)s1)C(=O)O (racemic) [1.0005] | 2.58^[a] |
| CCOC(=O)C(CO)NC(=O)c1sc(Br)c(Br)c1F (racemic) [1.0012] | 2.51^[a] |
| CCSC(=O)C(CC(C)C)NC(=O)c1sc(Br)c(Br)c1F (racemic) [1.0013] | 5.05^[a] |
| CCSC(=O)C(NC(=O)c1sc(Br)c(Br)c1F)C(C)C (racemic) [1.0014] | 4.87^[a] |
| CCOC(=O)C(CO)NC(=O)c1sc(Cl)c(Br)c1C (racemic) [1.0019] | 2.54^[a] |
| CCSC(=O)C(CC(C)C)NC(=O)c1sc(Cl)c(Br)c1C (racemic) [1.0020] | 5.03^[a] |
| CCOC(=O)C(NC(=O)c1sc(C#N)c(Br)c1C)C(C)C (racemic) [1.0027] | 3.52^[a] |
| CCOC(=O)C(Cc1ccccc1)NC(=O)c1sc(C#N)c(Br)c1C (racemic) [1.0028] | 3.74^[a] |
| CCOC(=O)C(Cc1ccccc1)NC(=O)c1cc(Br)c(Cl)s1 (racemic) [1.0029] | 4.06^[a] |
| CCOC(=O)C(Cc1ccccc1)NC(=O)c1cc(F)c(Br)s1 (racemic) [1.0030] | 3.69^[a] |
| CCOC(=O)C(Cc1ccccc1)NC(=O)c1cc(C)c(Cl)s1 (racemic) [1.0031] | 3.73^[a] |
| CCOC(=O)CNC(=O)c1sc(C)c(Br)c1F [1.0001] | 2.69^[a] |
| COC(=O)C1(NC(=O)c2sc(Br)c(Br)c2F)CCC(F)(F)CC1 [1.0010] | 3.74^[a] |
| O=C(CNC(=O)c1sc(Br)c(Br)c1F)Sc1ccccc1 [1.0016] | 3.89^[a] |
| CCOC(=O)C1(NC(=O)c2sc(Cl)c(Br)c2C)CCOCC1 [1.0018] | 3.15^[a] |
| Cc1c(C(=O)NCC(=O)SCc2ccccc2)sc(Cl)c1Br [1.0022] | 4.37^[a] |
| CCOC(=O)CNC(=O)c1sc(C#N)c(Br)c1C [1.0024] | 2.46^[a] |
| COC(=O)CC1(NC(=O)c2sc(Cl)c(Br)c2C)CC1 [1.0032] | 3.04^[a] |
| CCOC(=O)C1(CNC(=O)c2sc(Cl)c(Br)c2C)CC1 [1.0033] | 3.79^[a] |
| CCOC(=O)C1(NC(=O)c2sc(Cl)c(Br)c2C)COC1 [1.0034] | 2.88^[a] |
| CCOC(=O)C(CC(F)(F)F)NC(=O)c1sc(Cl)c(Br)c1C (stereo not shown) [1.0038] | 3.99^[a] |
| CCOC(=O)C1(NC(=O)c2sc(Br)c(Cl)c2C)COC1 [1.0041] | 2.84^[a] |
| COC(=O)C1(NC(=O)c2sc(Br)c(Cl)c2C)CSC1 [1.0042] | 3.25^[a] |

| Compound | LogP |
| --- | --- |
| CCOC(=O)C(CC(N)=O)NC(=O)c1sc(Br)c(Cl)c1C (stereo not shown) [1.0043] | 2.22^[a] |
| CCOC(=O)C(Cc1ccccc1)NC(=O)c1sc(Br)c(Br)c1F (stereo not shown) [1.0051] | 4.55^[a] |
| CCOC(=O)C1(NC(=O)c2cc(Br)c(C#N)s2)CC1 [1.0053] | 2.45^[a] |
| CCOC(=O)C(NC(=O)c1cc(Br)c(C#N)s1)C(C)C (stereo not shown) [1.0054] | 3.27^[a] |
| CCOC(=O)CCNC(=O)c1sc(Cl)c(Br)c1C [1.0064] | 3.15^[a] |
| CCOC(=O)C1(NC(=O)c2sc(Cl)c(Br)c2C)CC1 [1.0065] | 3.17^[a] |
| CCOC(=O)C1(NC(=O)c2sc(Cl)c(Br)c2C)CCC1 [1.0066] | 3.71^[a] |
| COC(=O)C(CC(F)F)NC(=O)c1sc(Cl)c(Br)c1C (stereo not shown) [1.0068] | 3.33^[a] |
| CCOC(=O)C(CC(C)C)NC(=O)c1sc(Cl)c(Br)c1C (stereo not shown) [1.0069] | 4.58^[a] |
| CCOC(=O)C(Cc1ccccc1)NC(=O)c1sc(Cl)c(Br)c1C (stereo not shown) [1.0071] | 4.51^[a] |
| CCOC(=O)CNC(=O)c1sc(Br)c(Cl)c1C [1.0072] | 2.94^[a] |
| CCOC(=O)CCNC(=O)c1sc(Br)c(Cl)c1C [1.0073] | 3.11^[a] |
| CCOC(=O)C1(NC(=O)c2sc(Br)c(Cl)c2C)CC1 [1.0074] | 3.13^[a] |
| CCOC(=O)C(NC(=O)c1sc(Br)c(Cl)c1C)C(C)C (stereo not shown) [1.0076] | 4.25^[a] |
| COC(=O)C(CC(F)F)NC(=O)c1sc(Br)c(Cl)c1C (stereo not shown) [1.0077] | 3.29^[a] |
| CCOC(=O)C(CC(C)C)NC(=O)c1sc(Br)c(Cl)c1C (stereo not shown) [1.0078] | 4.53^[a] |
| CCOC(=O)C(CCSC)NC(=O)c1sc(Br)c(Cl)c1C (stereo not shown) [1.0079] | 3.94^[a] |
| CCOC(=O)C(Cc1ccccc1)NC(=O)c1sc(Br)c(Cl)c1C (stereo not shown) [1.0080] | 4.46^[a] |
| CCOC(=O)CCNC(=O)c1sc(Br)c(Br)c1I [1.0081] | 3.48^[a] |
| CCOC(=O)C1(NC(=O)c2sc(Br)c(Br)c2I)CCC1 [1.0082] | 4.08^[a] |
| CCOC(=O)CCNC(=O)c1sc(Cl)c(Cl)c1Br [1.0084] | 3.50^[a] |
| CCOC(=O)CNC(=O)c1sc(Br)c(I)c1C [1.0087] | 3.09^[a] |
| CCOC(=O)CCNC(=O)c1sc(Br)c(I)c1C [1.0088] | 3.23^[a] |
| CCOC(=O)C1(NC(=O)c2sc(Br)c(I)c2C)CC1 [1.0089] | 3.25^[a] |

Same assay, conditions: method marker [a] given with each value; Table 1.1, compounds of formula (I)

| LogP | Compound |
| --- | --- |
| 4.26^[a] | COC(=O)C(NC(=O)c1sc(Cl)c(Cl)c1Br)c1cccs1 (racemic) [1.0947] |
| 4.08^[a] | CCOC(=O)C(NC(=O)c1sc(Br)c(Br)c1F)C(F)(F)F (racemic) [1.0952] |
| 3.84^[a] | COC(=O)C(NC(=O)c1sc(Br)c(Br)c1F)c1cccs1 (racemic) [1.0953] |

Second part, the compound before the results:

| Compound | LogP |
| --- | --- |
| COC(=O)C(Cc1ccc(Cl)cc1)NC(=O)c1sc(Br)c(Br)c1Cl (racemic) [1.0940] | 4.95^[a] |
| COC(=O)C(C)(Cc1ccccc1)NC(=O)c1sc(Br)c(Br)c1Cl (racemic) [1.0941] | 5.12^[a] |
| COC(=O)C(NC(=O)c1sc(Br)c(Br)c1Cl)c1cccs1 (racemic) [1.0942] | 4.25^[a] |
| CCOC(=O)C(NC(=O)c1sc(Br)c(Br)c1Cl)C(F)(F)F (racemic) [1.0943] | 4.50^[a] |
| CCOC(=O)C(NC(=O)c1sc(Cl)c(Cl)c1Br)C(F)(F)F (racemic) [1.0946] | 4.52^[a] |
| COC(=O)C(C)(Cc1ccccc1)NC(=O)c1sc(Cl)c(Cl)c1Br (racemic) [1.0948] | 5.15^[a] |
